Results on seven compounds are retold here after article PMC2653091 (Journal of medicinal chemistry, 2009).

The Emax is the greatest response seen or fitted, relative to the assay's reference.

The subject of one test is NPSR. The following applies: cited from earlier work.
A further test concerns mouse vertical activity. The following applies: at doses able to counteract the stimulatory effect of exogenously applied NPS; cited from earlier work.
The target of the next test is T1, mouse NPSR (Mus musculus, UniProt Q8BZP8).
T1 sequence (Q8BZP8 1-371): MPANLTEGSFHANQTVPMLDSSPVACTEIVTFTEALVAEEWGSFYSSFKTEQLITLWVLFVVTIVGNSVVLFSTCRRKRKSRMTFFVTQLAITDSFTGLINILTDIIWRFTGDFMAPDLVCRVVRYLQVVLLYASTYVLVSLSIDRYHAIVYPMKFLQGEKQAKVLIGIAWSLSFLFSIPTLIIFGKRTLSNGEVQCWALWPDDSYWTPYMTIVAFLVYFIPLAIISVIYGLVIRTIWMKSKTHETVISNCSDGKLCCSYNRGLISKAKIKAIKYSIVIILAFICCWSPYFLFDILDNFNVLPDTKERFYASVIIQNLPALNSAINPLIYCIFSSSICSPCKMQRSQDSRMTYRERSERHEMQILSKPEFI
The experiment in a line: Calcium mobilization in HEK293mNPSR cells, agonist mode. In kind it is cell-based.

Read-outs that look alike come from different tables or passages of the source. Where no end group is shown, it is not given here.

On to [Aib^5]NPS, for which the “Pharmacological profile at NPSR” value in the test on NPSR (ref 15) is reported as “partial agonists”.
Regarding `O=C(NCc1ccc(F)cc1)N1CCN2C(=O)OC(c3ccccc3)(c3ccccc3)C2C1` (stereo not drawn) [SHA 68, 3-Oxo-1,1-diphenyl-tetrahydro-oxazolo[3,4-a]pyrazine-7-carboxylic acid 4-fluoro-benzylamide], the “Pharmacological profile at NPSR” value in the test with NPSR (ref 18) is “pure antagonist”. Further, in the test with mouse vertical activity, the “Effect per se on mouse vertical activity” value is on record as “selective reduction of mouse vertical activity”.
As to [Ala^3]NPS, the “Pharmacological profile at NPSR” value in the test on NPSR (ref 17) is “partial agonist”.
As to “[Ala^5]NPS (SFRNAVGTGMKKTSFQRAKS; Neuropeptide S; UniProt P0C0P6 70-89, looked up, variant G5A)”, the “Pharmacological profile at NPSR” value in the test on NPSR (ref 6, 15) was “high potency NPSR full agonist”; in the test with NPSR (ref 15), “full agonist”.
As to [D-Ala^5]NPS, in the test with NPSR (ref 15), the “Pharmacological profile at NPSR” value is recorded as “partial agonist”.
Take “SFRNGVGTGMKKTSFQRAKS [NPS, Neuropeptide S]”: on mouse NPSR (read-out: Agonist Emax ± sem, SEM), the maximal effect (Emax) worked out at 295 ± 22%.
Consider “[Trp^5]NPS (SFRNWVGTGMKKTSFQRAKS; Neuropeptide S; UniProt P0C0P6 70-89, looked up, variant G5W) [Compound 2]”, for which the “Agonist effect at 10 μM (crc incomplete)” value with mouse NPSR (10 μM, % over the baseline, HEK293mNPSR) was 30%.
